Legend:
Parameters in all cases: scale not given: the % may be the effect or the level left
[1] = target: Serine/threonine-protein kinase 38 (Homo sapiens) (UniProt Q15208); assay: Inhibition of human STK38 assessed as enzyme activity at 1 uM using KKRNRRLSVA as substrate preincubated for 20 mins followed by [gamma-33P]-ATP addition and measured after 120 mins by radiometric Hot-SpotSM Kinase assay relative to control
[2] = target: Serine/threonine-protein kinase WNK3 (Homo sapiens) (UniProt Q9BYP7); assay: Inhibition of human WNK3 assessed as enzyme activity at 1 uM using myelin basic protein as substrate preincubated for 20 mins followed by [gamma-33P]-ATP addition and measured after 120 mins by radiometric Hot-SpotSM Kinase assay relative to control
Sequence of Serine/threonine-protein kinase WNK3 (Homo sapiens) (Q9BYP7 whole entry): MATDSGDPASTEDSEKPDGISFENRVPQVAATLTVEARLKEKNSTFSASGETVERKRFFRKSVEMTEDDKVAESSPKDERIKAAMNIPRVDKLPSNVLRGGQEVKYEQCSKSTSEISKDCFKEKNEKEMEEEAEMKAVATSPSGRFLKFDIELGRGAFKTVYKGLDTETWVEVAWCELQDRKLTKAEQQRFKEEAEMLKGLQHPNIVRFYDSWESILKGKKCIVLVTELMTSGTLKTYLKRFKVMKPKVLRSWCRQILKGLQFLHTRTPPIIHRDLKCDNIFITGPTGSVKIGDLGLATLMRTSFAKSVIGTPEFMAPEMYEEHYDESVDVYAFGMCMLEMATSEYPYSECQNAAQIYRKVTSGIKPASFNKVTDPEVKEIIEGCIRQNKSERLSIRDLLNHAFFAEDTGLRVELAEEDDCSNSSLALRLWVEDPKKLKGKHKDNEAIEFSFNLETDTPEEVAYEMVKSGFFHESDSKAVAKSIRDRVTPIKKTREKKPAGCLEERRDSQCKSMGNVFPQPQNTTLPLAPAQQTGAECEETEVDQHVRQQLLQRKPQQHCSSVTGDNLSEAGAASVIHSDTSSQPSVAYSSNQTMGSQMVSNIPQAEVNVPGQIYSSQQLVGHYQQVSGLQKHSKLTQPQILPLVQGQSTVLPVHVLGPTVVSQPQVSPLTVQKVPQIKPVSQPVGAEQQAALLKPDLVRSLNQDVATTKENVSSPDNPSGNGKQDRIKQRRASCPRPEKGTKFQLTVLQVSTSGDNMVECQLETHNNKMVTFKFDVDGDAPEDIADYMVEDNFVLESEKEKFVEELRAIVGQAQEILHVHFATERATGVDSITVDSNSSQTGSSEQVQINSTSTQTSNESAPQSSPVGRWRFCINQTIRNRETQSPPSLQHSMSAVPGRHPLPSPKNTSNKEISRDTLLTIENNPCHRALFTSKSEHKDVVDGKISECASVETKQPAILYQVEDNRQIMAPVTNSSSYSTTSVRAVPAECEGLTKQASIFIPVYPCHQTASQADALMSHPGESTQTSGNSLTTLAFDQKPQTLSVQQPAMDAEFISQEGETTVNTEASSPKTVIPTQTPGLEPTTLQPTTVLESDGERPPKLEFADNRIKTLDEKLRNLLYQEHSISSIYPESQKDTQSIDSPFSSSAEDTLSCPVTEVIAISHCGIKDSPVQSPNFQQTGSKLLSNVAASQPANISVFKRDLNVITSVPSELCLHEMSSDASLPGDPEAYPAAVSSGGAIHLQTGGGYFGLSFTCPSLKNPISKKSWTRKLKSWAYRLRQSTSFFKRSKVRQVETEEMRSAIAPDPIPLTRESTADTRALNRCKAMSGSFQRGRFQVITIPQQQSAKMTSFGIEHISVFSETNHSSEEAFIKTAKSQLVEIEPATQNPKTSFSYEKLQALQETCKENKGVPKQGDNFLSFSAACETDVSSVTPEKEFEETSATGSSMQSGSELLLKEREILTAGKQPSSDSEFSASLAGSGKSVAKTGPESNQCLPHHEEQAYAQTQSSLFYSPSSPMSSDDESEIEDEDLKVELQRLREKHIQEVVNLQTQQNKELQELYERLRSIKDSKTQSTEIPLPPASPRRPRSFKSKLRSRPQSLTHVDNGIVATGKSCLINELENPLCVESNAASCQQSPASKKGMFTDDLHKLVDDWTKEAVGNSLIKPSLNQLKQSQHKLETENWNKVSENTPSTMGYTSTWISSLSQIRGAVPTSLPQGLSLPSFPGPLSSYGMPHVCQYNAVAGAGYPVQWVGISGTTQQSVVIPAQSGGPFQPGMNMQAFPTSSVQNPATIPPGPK

[3] = target: T1, Homeodomain-interacting protein kinase 4 (Homo sapiens) (UniProt Q8NE63); assay: Inhibition of human HIPK4 assessed as enzyme activity at 1 uM using myelin basic protein as substrate preincubated for 20 mins followed by [gamma-33P]-ATP addition and measured after 120 mins by radiometric Hot-SpotSM Kinase assay relative to control
T1 sequence (whole entry): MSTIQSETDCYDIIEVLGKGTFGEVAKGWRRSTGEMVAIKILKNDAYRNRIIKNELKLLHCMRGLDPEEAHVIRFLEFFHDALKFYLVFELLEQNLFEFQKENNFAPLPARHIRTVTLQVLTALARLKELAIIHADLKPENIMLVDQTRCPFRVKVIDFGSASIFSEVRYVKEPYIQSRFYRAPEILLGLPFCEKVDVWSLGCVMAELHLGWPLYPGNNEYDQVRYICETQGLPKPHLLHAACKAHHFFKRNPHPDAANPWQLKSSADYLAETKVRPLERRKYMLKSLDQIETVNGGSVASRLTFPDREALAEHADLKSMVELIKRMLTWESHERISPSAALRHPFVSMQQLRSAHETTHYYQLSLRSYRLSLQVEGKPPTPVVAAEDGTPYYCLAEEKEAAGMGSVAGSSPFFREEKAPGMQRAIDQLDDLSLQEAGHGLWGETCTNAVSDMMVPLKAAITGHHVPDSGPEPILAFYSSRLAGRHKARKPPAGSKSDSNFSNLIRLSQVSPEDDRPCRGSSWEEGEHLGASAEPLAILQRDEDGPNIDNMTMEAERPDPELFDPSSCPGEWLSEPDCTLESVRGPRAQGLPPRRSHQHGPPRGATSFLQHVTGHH

[4] = target: Protein kinase C eta type (Homo sapiens) (UniProt P24723); assay: Inhibition of human PKCeta assessed as enzyme activity at 1 uM using ERMRPRKRQGSVRRRV as substrate preincubated for 20 mins followed by [gamma-33P]-ATP addition and measured after 120 mins by radiometric Hot-SpotSM Kinase assay relative to control
Sequence of Protein kinase C eta type (Homo sapiens) (P24723 whole entry): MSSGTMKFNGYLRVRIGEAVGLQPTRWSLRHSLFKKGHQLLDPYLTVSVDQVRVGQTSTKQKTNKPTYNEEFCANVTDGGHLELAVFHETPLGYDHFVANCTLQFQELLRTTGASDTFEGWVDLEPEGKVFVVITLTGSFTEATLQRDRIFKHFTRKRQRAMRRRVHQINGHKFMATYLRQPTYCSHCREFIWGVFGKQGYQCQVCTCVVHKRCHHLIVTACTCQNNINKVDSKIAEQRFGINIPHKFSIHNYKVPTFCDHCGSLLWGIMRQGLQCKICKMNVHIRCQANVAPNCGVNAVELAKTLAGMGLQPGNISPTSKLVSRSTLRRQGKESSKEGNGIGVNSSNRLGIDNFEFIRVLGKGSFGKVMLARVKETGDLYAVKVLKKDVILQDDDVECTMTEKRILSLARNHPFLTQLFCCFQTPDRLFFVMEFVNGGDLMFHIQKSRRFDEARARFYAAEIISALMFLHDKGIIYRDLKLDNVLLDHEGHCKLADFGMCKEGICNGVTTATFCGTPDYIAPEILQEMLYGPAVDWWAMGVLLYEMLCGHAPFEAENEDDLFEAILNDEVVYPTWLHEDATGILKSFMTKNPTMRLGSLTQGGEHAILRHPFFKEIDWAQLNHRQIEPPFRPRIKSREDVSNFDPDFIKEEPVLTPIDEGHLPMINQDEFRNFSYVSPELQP

[5] = target: T2, Serine/threonine-protein kinase PLK4 (Homo sapiens) (UniProt O00444); assay: Inhibition of human PLK4 assessed as enzyme activity at 1 uM using casein as substrate preincubated for 20 mins followed by [gamma-33P]-ATP addition and measured after 120 mins by radiometric Hot-SpotSM Kinase assay relative to control
T2 sequence (whole entry): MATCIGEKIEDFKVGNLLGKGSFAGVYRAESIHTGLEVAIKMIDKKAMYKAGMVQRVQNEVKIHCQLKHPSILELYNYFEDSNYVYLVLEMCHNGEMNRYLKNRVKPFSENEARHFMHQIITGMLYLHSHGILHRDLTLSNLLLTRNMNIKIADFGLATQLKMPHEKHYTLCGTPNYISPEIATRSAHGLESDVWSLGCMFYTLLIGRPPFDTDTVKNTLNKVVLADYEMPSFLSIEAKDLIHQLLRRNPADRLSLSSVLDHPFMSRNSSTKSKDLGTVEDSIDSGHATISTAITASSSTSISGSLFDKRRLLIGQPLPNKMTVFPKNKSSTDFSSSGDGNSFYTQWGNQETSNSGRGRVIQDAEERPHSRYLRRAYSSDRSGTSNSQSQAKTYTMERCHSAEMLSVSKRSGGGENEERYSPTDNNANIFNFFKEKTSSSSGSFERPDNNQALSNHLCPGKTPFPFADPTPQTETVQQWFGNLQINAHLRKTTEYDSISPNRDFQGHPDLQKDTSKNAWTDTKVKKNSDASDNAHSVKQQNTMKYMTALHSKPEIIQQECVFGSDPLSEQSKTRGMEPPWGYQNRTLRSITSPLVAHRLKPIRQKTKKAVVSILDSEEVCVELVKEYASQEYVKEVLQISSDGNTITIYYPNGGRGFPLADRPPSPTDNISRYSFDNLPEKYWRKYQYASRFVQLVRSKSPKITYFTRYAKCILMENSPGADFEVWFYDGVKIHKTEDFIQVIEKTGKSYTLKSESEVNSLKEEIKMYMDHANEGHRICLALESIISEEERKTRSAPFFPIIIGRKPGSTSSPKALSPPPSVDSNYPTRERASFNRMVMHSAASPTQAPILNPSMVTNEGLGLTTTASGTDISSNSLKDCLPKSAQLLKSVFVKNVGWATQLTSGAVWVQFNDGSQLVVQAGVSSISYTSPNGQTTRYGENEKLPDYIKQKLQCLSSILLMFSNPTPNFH

[6] = target: T3, Serine/threonine-protein kinase haspin (Homo sapiens) (UniProt Q8TF76); assay: Inhibition of human Haspin assessed as enzyme activity at 1 uM using histone H3 as substrate preincubated for 20 mins followed by [gamma-33P]-ATP addition and measured after 120 mins by radiometric Hot-SpotSM Kinase assay relative to control
T3 sequence (whole entry): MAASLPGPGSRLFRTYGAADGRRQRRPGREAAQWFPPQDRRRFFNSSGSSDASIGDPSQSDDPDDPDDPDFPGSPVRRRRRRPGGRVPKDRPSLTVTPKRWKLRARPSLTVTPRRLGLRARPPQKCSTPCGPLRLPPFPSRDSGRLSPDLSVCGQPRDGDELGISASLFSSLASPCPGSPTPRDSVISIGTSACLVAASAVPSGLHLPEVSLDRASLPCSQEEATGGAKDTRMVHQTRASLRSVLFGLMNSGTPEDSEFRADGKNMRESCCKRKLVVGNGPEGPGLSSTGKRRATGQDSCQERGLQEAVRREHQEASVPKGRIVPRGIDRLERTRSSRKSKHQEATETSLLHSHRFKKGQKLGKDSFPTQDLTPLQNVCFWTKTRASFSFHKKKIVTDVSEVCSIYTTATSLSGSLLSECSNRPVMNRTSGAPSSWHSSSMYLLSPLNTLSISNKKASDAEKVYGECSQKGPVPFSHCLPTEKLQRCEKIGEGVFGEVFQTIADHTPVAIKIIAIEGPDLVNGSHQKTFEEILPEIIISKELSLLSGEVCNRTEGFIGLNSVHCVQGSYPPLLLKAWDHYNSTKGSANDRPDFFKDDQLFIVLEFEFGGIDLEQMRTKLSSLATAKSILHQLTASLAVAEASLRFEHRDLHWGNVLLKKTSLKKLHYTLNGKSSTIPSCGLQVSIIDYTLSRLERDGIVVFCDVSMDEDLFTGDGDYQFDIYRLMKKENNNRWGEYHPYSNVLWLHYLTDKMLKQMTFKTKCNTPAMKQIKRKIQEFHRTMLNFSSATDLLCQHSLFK

Sequence of Serine/threonine-protein kinase 38 (Homo sapiens) (Q15208 2-465 limits assumed): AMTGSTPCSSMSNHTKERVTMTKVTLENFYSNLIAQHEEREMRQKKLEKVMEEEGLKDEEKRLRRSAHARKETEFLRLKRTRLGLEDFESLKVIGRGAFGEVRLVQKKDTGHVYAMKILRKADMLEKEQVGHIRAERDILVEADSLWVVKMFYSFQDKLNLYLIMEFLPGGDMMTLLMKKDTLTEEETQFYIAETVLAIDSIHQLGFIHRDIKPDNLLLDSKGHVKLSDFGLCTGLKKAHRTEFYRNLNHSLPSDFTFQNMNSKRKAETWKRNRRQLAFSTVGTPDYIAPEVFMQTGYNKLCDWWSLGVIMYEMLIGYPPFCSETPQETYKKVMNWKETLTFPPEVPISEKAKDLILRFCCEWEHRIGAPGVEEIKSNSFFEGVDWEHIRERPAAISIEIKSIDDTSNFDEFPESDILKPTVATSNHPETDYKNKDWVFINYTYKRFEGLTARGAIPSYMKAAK

SMILES | Activity [1] [%] | Activity [2] [%] | Activity [3] [%] | Activity [4] [%] | Activity [5] [%] | Activity [6] [%]
C[C@H](Nc1ncnc2nc[nH]c12)c1cc2cccc(Cl)c2c(=O)n1-c1ccccc1 | 86.5 | 86.8 | 98.9 | 87.7 | 91 | 96.5
CC[C@H](Nc1ncnc2[nH]cnc12)c1nc2cccc(F)c2c(=O)n1-c1ccccc1 | 94.5 | 86.4 | 92.9 | 88.5 | 99.9 | 95.5
CC(C)Oc1ccc(-c2nn([C@@H](C)c3oc4ccc(F)cc4c(=O)c3-c3cccc(F)c3)c3ncnc(N)c23)cc1F [UMBRALISIB] | 91.4 | 82.7 | 113 | 88.4 | 102 | 93.7
